Experiments:
[1] = Stability of cannabinoid compounds and Vitamin E components in Beverage 2 (AB Red) by LCMSMS; assay type: physicochemical
[2] = Stability of cannabinoid entourage and Vitamin E components of the powder concentrate by LCMSMS; assay type: physicochemical; conditions: powder stored at 21-25° C.
Method: At each time period, 0.05 g of powder was dissolved in 10 ml-15 of ethanol, diluted to fall within the analytical range, and injected into the LCMSMS for analysis.

For `CCCCCc1cc(O)c(C/C=C(\C)CCC=C(C)C)c(O)c1` [CBG, cannabigerol], the “Stability of Plant-Derived Cannabinoid Compounds in AB Red” value (“Stability … in AB Red” below) ([1]; stored at 8° C., 0 days) was 4.75 µg/mL, the “Stability … in AB Red” value ([1]; stored at 8° C., 1 days) was 4.62 µg/mL and the “Stability … in AB Red” value ([1]; stored at 8° C., 2 days) was 4.79 µg/mL. The “Stability … in AB Red” value ([1]; stored at 8° C., 3 days) was 4.70 µg/mL, the “Stability … in AB Red” value ([1]; stored at 8° C., 5 days) was 4.75 µg/mL and the “Stability … in AB Red” value ([1]; stored at 8° C., 8 days) was 4.76 µg/mL. The “Stability … in AB Red” value ([1]; stored at 8° C., 9 days) was 4.72 µg/mL, the “Stability … in AB Red” value ([1]; stored at 8° C., 10 days) was 4.68 µg/mL and the “Stability … in AB Red” value ([1]; stored at 8° C., 11 days) was 4.77 µg/mL. The “Stability … in AB Red” value ([1]; stored at 8° C., 12 days) was 4.64 µg/mL, the “Stability … in AB Red” value ([1]; stored at 8° C., 15 days) was 4.68 µg/mL and the “Stability … in AB Red” value ([1]; stored at 8° C., 16 days) was 4.65 µg/mL. The “Stability … in AB Red” value ([1]; stored at 8° C., 17 days) was 4.77 µg/mL, the “Stability … in AB Red” value ([1]; stored at 8° C., 18 days) was 4.67 µg/mL and the “Stability … in AB Red” value ([1]; stored at 8° C., 19 days) was 4.71 µg/mL. For the same compound, the “Stability … in AB Red” value ([1]; stored at 8° C., 22 days) was 4.70 µg/mL, the “Stability … in AB Red” value ([1]; stored at 8° C., 23 days) was 4.66 µg/mL and the “Stability … in AB Red” value ([1]; stored at 8° C., 24 days) was 4.65 µg/mL. The “Stability … in AB Red” value ([1]; stored at 8° C., 25 days) was 4.73 µg/mL, the “Stability … in AB Red” value ([1]; stored at 8° C., 26 days) was 4.68 µg/mL and the “Stability … in AB Red” value ([1]; stored at 8° C., 29 days) was 4.80 µg/mL. For the same compound, the “Stability … in AB Red” value ([1]; stored at 8° C., 30 days) was 4.72 µg/mL, the “Stability … in AB Red” value ([1]; stored at 8° C., 60 days) was 4.70 µg/mL and the “Stability … in AB Red” value ([1]; stored at 8° C., 90 days) was 4.73 µg/mL. For the same compound, the “Stability … in AB Red” value ([1]; stored at 8° C., 120 days) was 4.68 µg/mL, the “Stability … in AB Red” value ([1]; stored at 8° C., 150 days) was 4.67 µg/mL and the “Stability … in AB Red” value ([1]; stored at 8° C., 180 days) was 4.65 µg/mL. The “Stability … in AB Red” value ([1]; stored at 8° C., 210 days) was 4.60 µg/mL, the “Stability … in AB Red” value ([1]; stored at 8° C., 240 days) was 4.68 µg/mL and the “Stability … in AB Red” value ([1]; stored at 8° C., 270 days) was 4.66 µg/mL. For the same compound, the “Stability … in AB Red” value ([1]; stored at 8° C., 300 days) was 4.70 µg/mL, the “Stability … in AB Red” value ([1]; stored at 8° C., 330 days) was 4.60 µg/mL and the “Stability … in AB Red” value ([1]; stored at 8° C., 360 days) was 4.63 µg/mL. For the same compound, the “Stability … in AB Red” value ([1]; stored at 8° C., 390 days) was 4.55 µg/mL, the “Stability … in AB Red” value ([1]; stored at 8° C., 420 days) was 4.58 µg/mL and the “Stability … in AB Red” value ([1]; stored at 8° C., 450 days) was 4.54 µg/mL. For the same compound, the “Stability … in AB Red” value ([1]; stored at 8° C., 480 days) was 4.51 µg/mL, the “Stability … in AB Red” value ([1]; stored at 8° C., 510 days) was 4.40 µg/mL and the “Stability … in AB Red” value ([1]; stored at 8° C., 540 days) was 4.42 µg/mL. The “Stability … in AB Red” value ([1]; stored at 8° C., 570 days) was 4.37 µg/mL, the “Stability … in AB Red” value ([1]; stored at 21-25° C., 0 days) was 4.75 µg/mL and the “Stability … in AB Red” value ([1]; stored at 21-25° C., 1 days) was 4.57 µg/mL. For the same compound, the “Stability … in AB Red” value ([1]; stored at 21-25° C., 2 days) was 4.61 µg/mL, the “Stability … in AB Red” value ([1]; stored at 21-25° C., 3 days) was 4.71 µg/mL and the “Stability … in AB Red” value ([1]; stored at 21-25° C., 5 days) was 4.66 µg/mL. For the same compound, the “Stability … in AB Red” value ([1]; stored at 21-25° C., 8 days) was 4.66 µg/mL, the “Stability … in AB Red” value ([1]; stored at 21-25° C., 9 days) was 4.74 µg/mL and the “Stability … in AB Red” value ([1]; stored at 21-25° C., 10 days) was 4.59 µg/mL. For the same compound, the “Stability … in AB Red” value ([1]; stored at 21-25° C., 11 days) was 4.72 µg/mL, the “Stability … in AB Red” value ([1]; stored at 21-25° C., 12 days) was 4.62 µg/mL and the “Stability … in AB Red” value ([1]; stored at 21-25° C., 15 days) was 4.80 µg/mL. For the same compound, the “Stability … in AB Red” value ([1]; stored at 21-25° C., 16 days) was 4.75 µg/mL, the “Stability … in AB Red” value ([1]; stored at 21-25° C., 17 days) was 4.63 µg/mL and the “Stability … in AB Red” value ([1]; stored at 21-25° C., 18 days) was 4.70 µg/mL. The “Stability … in AB Red” value ([1]; stored at 21-25° C., 19 days) was 4.66 µg/mL, the “Stability … in AB Red” value ([1]; stored at 21-25° C., 22 days) was 4.71 µg/mL and the “Stability … in AB Red” value ([1]; stored at 21-25° C., 23 days) was 4.67 µg/mL. For the same compound, the “Stability … in AB Red” value ([1]; stored at 21-25° C., 24 days) was 4.78 µg/mL, the “Stability … in AB Red” value ([1]; stored at 21-25° C., 25 days) was 4.56 µg/mL and the “Stability … in AB Red” value ([1]; stored at 21-25° C., 26 days) was 4.77 µg/mL. For the same compound, the “Stability … in AB Red” value ([1]; stored at 21-25° C., 29 days) was 4.78 µg/mL, the “Stability … in AB Red” value ([1]; stored at 21-25° C., 30 days) was 4.73 µg/mL and the “Stability … in AB Red” value ([1]; stored at 21-25° C., 60 days) was 4.61 µg/mL. For the same compound, the “Stability … in AB Red” value ([1]; stored at 21-25° C., 90 days) was 4.55 µg/mL, the “Stability … in AB Red” value ([1]; stored at 21-25° C., 120 days) was 4.61 µg/mL and the “Stability … in AB Red” value ([1]; stored at 21-25° C., 150 days) was 4.65 µg/mL. The “Stability … in AB Red” value ([1]; stored at 21-25° C., 180 days) was 4.53 µg/mL, the “Stability … in AB Red” value ([1]; stored at 21-25° C., 210 days) was 4.63 µg/mL and the “Stability … in AB Red” value ([1]; stored at 21-25° C., 240 days) was 4.56 µg/mL. The “Stability … in AB Red” value ([1]; stored at 21-25° C., 270 days) was 4.68 µg/mL, the “Stability … in AB Red” value ([1]; stored at 21-25° C., 300 days) was 4.47 µg/mL and the “Stability … in AB Red” value ([1]; stored at 21-25° C., 330 days) was 4.57 µg/mL. The “Stability … in AB Red” value ([1]; stored at 21-25° C., 360 days) was 4.47 µg/mL, the “Stability … in AB Red” value ([1]; stored at 21-25° C., 390 days) was 4.57 µg/mL and the “Stability … in AB Red” value ([1]; stored at 21-25° C., 420 days) was 4.51 µg/mL. The “Stability … in AB Red” value ([1]; stored at 21-25° C., 450 days) was 4.63 µg/mL, the “Stability … in AB Red” value ([1]; stored at 21-25° C., 480 days) was 4.44 µg/mL and the “Stability … in AB Red” value ([1]; stored at 21-25° C., 510 days) was 4.37 µg/mL. For the same compound, the “Stability … in AB Red” value ([1]; stored at 21-25° C., 540 days) was 4.49 µg/mL, the “Stability … in AB Red” value ([1]; stored at 21-25° C., 570 days) was 4.36 µg/mL and the “Stability of Plant-Derived Cannabinoid Compounds in Powder Concentrate” value (“Stability … in Powder Concentrate” for short) ([2]; 0 days) was 1.1 mg/g powder. For the same compound, the “Stability … in Powder Concentrate” value ([2]; 1 days) was 1.07 mg/g powder, the “Stability … in Powder Concentrate” value ([2]; 2 days) was 1.08 mg/g powder and the “Stability … in Powder Concentrate” value ([2]; 3 days) was 1.09 mg/g powder. The “Stability … in Powder Concentrate” value ([2]; 5 days) was 1.11 mg/g powder, the “Stability … in Powder Concentrate” value ([2]; 8 days) was 1.07 mg/g powder and the “Stability … in Powder Concentrate” value ([2]; 9 days) was 1.09 mg/g powder. For the same compound, the “Stability … in Powder Concentrate” value ([2]; 10 days) was 1.08 mg/g powder, the “Stability … in Powder Concentrate” value ([2]; 11 days) was 1.14 mg/g powder and the “Stability … in Powder Concentrate” value ([2]; 12 days) was 1.10 mg/g powder. The “Stability … in Powder Concentrate” value ([2]; 15 days) was 1.08 mg/g powder, the “Stability … in Powder Concentrate” value ([2]; 16 days) was 1.06 mg/g powder and the “Stability … in Powder Concentrate” value ([2]; 17 days) was 1.06 mg/g powder. The “Stability … in Powder Concentrate” value ([2]; 18 days) was 1.13 mg/g powder, the “Stability … in Powder Concentrate” value ([2]; 19 days) was 1.14 mg/g powder and the “Stability … in Powder Concentrate” value ([2]; 22 days) was 1.12 mg/g powder. For the same compound, the “Stability … in Powder Concentrate” value ([2]; 23 days) was 1.13 mg/g powder, the “Stability … in Powder Concentrate” value ([2]; 24 days) was 1.09 mg/g powder and the “Stability … in Powder Concentrate” value ([2]; 25 days) was 1.13 mg/g powder. For the same compound, the “Stability … in Powder Concentrate” value ([2]; 26 days) was 1.14 mg/g powder, the “Stability … in Powder Concentrate” value ([2]; 29 days) was 1.10 mg/g powder and the “Stability … in Powder Concentrate” value ([2]; 30 days) was 1.07 mg/g powder. The “Stability … in Powder Concentrate” value ([2]; 60 days) was 1.11 mg/g powder, the “Stability … in Powder Concentrate” value ([2]; 90 days) was 1.13 mg/g powder and the “Stability … in Powder Concentrate” value ([2]; 120 days) was 1.09 mg/g powder. The “Stability … in Powder Concentrate” value ([2]; 150 days) was 1.11 mg/g powder, the “Stability … in Powder Concentrate” value ([2]; 180 days) was 1.07 mg/g powder and the “Stability … in Powder Concentrate” value ([2]; 210 days) was 1.06 mg/g powder. For the same compound, the “Stability … in Powder Concentrate” value ([2]; 240 days) was 1.12 mg/g powder, the “Stability … in Powder Concentrate” value ([2]; 270 days) was 1.15 mg/g powder and the “Stability … in Powder Concentrate” value ([2]; 300 days) was 1.09 mg/g powder. The “Stability … in Powder Concentrate” value ([2]; 330 days) was 1.10 mg/g powder, the “Stability … in Powder Concentrate” value ([2]; 360 days) was 1.09 mg/g powder and the “Stability … in Powder Concentrate” value ([2]; 390 days) was 1.14 mg/g powder. The “Stability … in Powder Concentrate” value ([2]; 420 days) was 1.11 mg/g powder, the “Stability … in Powder Concentrate” value ([2]; 450 days) was 1.06 mg/g powder and the “Stability … in Powder Concentrate” value ([2]; 480 days) was 1.12 mg/g powder. The “Stability … in Powder Concentrate” value ([2]; 510 days) was 1.07 mg/g powder, the “Stability … in Powder Concentrate” value ([2]; 540 days) was 1.07 mg/g powder and the “Stability … in Powder Concentrate” value ([2]; 570 days) was 1.06 mg/g powder.
